Tested on: naive CD4 T cells
Assay: Differentiation induction of naive CD4 T cells (DP8α induction)
Assay type: cell-based, human
Conditions: for effect on the frequency of DP8α cells: short chain fatty acid added to the induction culture
Protocol: Naive CD4 T cells are obtained from PBMC or PBL using the EasySep negative selection kit for naive CD4 T cells ([…] technologies).
Monocytes are isolated from PBMC using the CD14 microbeads positive selection kit of Miltenyi.
Immature dendritic cells (iDC) are prepared from monocytes (CD14+) cultured for 3 days with IL-4 (200 IU/ml) and GM-CSF (1000 IU/ml). Said cells are also called mo-iDC (monocyte-derived immature dendritic cells).
Immature DC are co-cultured for a night with thawed F. prausnitzii bacteria at 1:1 ratio in the presence or not of butyrate. The iDC are then added to naive CD4 cells for 5 days in the presence of IL-2.
Alternatively, butyrate is added later, at the same time as naive CD4 T cell.
DP8α induction is measured by a labeling with CD3-PE (phycoerythrin), CD4-FITC, CD8-APC (allophycocyanin) antibodies. The results are compared with those obtained with unstimulated CD4 T cells, CD4 T cells stimulated by iDC alone and CD4 T cells stimulated by iDC loaded with E. coli.

Structure (SMILES)	effect on the frequency of DP8α cells	fraction of naive CD4 T cells that acquire the DP8α phenotype (mean) (butyrate 0.145 mM added to iDC loaded with F. prausnitzii) [%]
CCC(=O)O [propionate]	no or few effect	–
CC(=O)O [acetate]	no or few effect	–
CCCC(=O)O [butyrate]	–	6
